Test results from patent publication US10563271B2, “High-level production of diacetyl in a metabolically engineered lactic acid bacterium” (Danmarks Tekniske Universitet, priority 2015, dated 2020).

Tests used:
L. lactis strain CS4616m [1] = experiment: Metal ion enhancement of diacetyl production from acetolactate in stationary-phase CS4616m culture; design: species or system Lactococcus lactis subsp. cremoris
Protocol: Graphical presentation of diacetyl formation from acetolactate as a function of time (hr) when L. lactis strain CS4616m is cultured in the presence of increasing levels of either Fe^3+ (B); Fe^2+ (C); and Cu^2+ (D). The time point for adding the metal catalysts during the cultivation of L. Lactis strain CS4616m was at 9.8 h, which is indicated by the straight line in (A). Experiments were conducted in duplicate and error bars indicate standard deviations.
Glucose, lactate, and ethanol were detected and quantitated using the Ultimate 3000 high-pressure liquid chromatography system (Dionex, Sunnyvale, USA) equipped with a Aminex HPX-87H column (Bio-Rad, Hercules, USA) and a Shodex RI-101 detector (Showa Denko K.K., Tokyo, Japan). Pyruvate was detected and quantitated using the DAD-3000 diode array detector (Dionex, Sunnyvale, USA). The column oven temperature was set at 60° C. with a mobile phase of 5 mM H2SO4, and the flow rate was 0.5 ml/min. Acetoin and α-acetolactate were measured colorimetrically based on Westerfeld et al. (1945). Diacetyl concentration was determined as described by Benson et al (1996).
When the cells entered the stationary phase, different concentrations of these metal catalysts were added to the cultivation medium. […] The yield and productivity for diacetyl production was as high as 0.87 mol mol^−1 glucose and 0.58 g/L·h based on 4 h data.

L. lactis strain CS4616m [2] = experiment: Inhibition of growth of CS4616m culture by metal ions or diacetyl; assay type: cell-based, Lactococcus lactis subsp. cremoris
Protocol: FIG. 5. Inhibitory effect of diacetyl on growth of L. lactis CS4616m. (A) Graphical presentation of cell growth of L. Lactis strain CS4616m, as measured by cell density (OD600 nm), in the presence of diacetyl (0-10 mM), which was added when the culture reached a cell density (OD600 nm) of 0.6. (B) Graphical presentation of cell growth of L. Lactis strain CS4616m, as measured by cell density (OD600 nm), and substrate/product profile in the presence of 10 mM Fe^3+ (added in the beginning of growth phase).
The observed high yields of diacetyl by cells of the L. lactis strain CS4616m are achieved by the addition of metal ions to the cells after they have reached the desired cell biomass. […] The final biomass of a culture grown in the presence of 10 mM Fe^3+ was only 3.3 (OD600 nm) (FIG. 5B) compared to 8.5 (OD600 nm) in the absence of a Fe^3+ supplement (FIG. 5A). […] In summary, for optimal diacetyl production, L. lactis strain CS4616m should be cultivated under aerobic conditions in the presence of a carbon source, e.g. glucose, in the presence of hemin until a sufficient biomass has been reached, followed by the addition of metal ions, preferably Fe^3+ or Cu^2+), and maintaining the aerobic conditions, in order for the accumulated acetolactate to be converted into diacetyl with high yield. The observed increase in diacetyl production by cells of the L. lactis strain CS4616m in response to Fe^3+, Fe^2+ and Cu^2+ is consistent with the finding that these metal ions serve as accelerators of the non-enzymatic oxidative decarboxylation flux from acetolactate to diacetyl. Optionally, once a sufficient biomass of the genetically modified Lactococcus lactis has been obtained following cultivation in the presence of a source of protoporphyrin IX or iron-containing porphyrin (e.g. hemin), the conversion of accumulated acetolactate can be accelerated by elevating the temperature of the culture or culture medium, for example to 60-65 degrees centigrade.

L. lactis strain CS4616m [3] = experiment: Respiration-dependent aerobic growth of L. lactis strain CS4616m at different hemin concentrations; assay type: cell-based, Lactococcus lactis subsp. cremoris
Protocol: L. lactis were grown aerobically at 30° C. in rich M17 broth (Terzaghi et al., 1975) supplemented with 2% (w/v) glucose and different concentrations of hemin in shaken 250 ml conical flasks. When required, antibiotics were added in the following concentrations: erythromycin: 200 μg/ml for E. coli and 5 μg/ml for L. lactis, tetracycline: 8 μg/ml for E. coli and 5 μg/ml for L. lactis, chloramphenicol: 20 μg/ml for E. coli and 5 μg/ml for L. lactis.
However, growth of the L. lactis strain was restored under aerobic conditions when hemin was present (FIG. 2B). The specific growth rate and final biomass density (OD600 nm) of the L. lactis strain increased in response to hemin concentrations of above 0.2 μg/ml, where a growth rate of 0.8 h^−1 and cell density of OD600 nm 8.5 was measured using a growth medium comprising 2% glucose, hemin levels were 1 μg/ml or above.

L. lactis strain CS4616m [4] = experiment: Measurement of intracellular NADH and NAD+ (NAD+/NADH-Glo Assay); assay type: cell-based, Lactococcus lactis subsp. cremoris
Protocol: L. lactis cell culture harvested in the mid-exponential growth phase (OD600 nm=0.6) was frozen in liquid nitrogen and stored at −20° C. Extraction and quantification of NADH and NAD^+ were performed using the kit NAD^+/NADH-Glo™ Assay (Promega) according to the instructions. Intracellular NADH and NAD^+ concentrations were estimated by assuming that 1 g (dry weight) of cells corresponded to 1.67 ml of intracellular volume and the cell density of 1 OD600 nm corresponds to 0.35 g/I dry cell mass.
In the L. lactis respiration chain (FIG. 2A), electrons are transferred from NADH dehydrogenase (NoxAB), menaquinone to Cyt bd oxidase in the presence of hemin. The observed growth and NADH/NAD+ ratio of genetically engineered strain CS4616m induced by hemin is consistent with the theory that NADH generated by the glycolysis pathway can be replenished through respiration and that suitable hemin activators can be used to fine-tune respiration and restore cell growth in this strain.

[5] = 10 or 20 mM, present in growth medium from the beginning of the growth phase
[6] = aerobic, growth medium 2% glucose, hemin 1 μg/ml or above

## [Cu+2] [Cu^2+]
L. lactis strain CS4616m [1]; 30 mM Cu^2+ added at stationary phase, after 1 h
  diacetyl concentration: 78 mM
L. lactis strain CS4616m [1]; 30 mM Cu^2+, after 1 h
  productivity for diacetyl production: 0.619 g/L·h
L. lactis strain CS4616m [2]; [5]
  cell growth: inhibited growth
L. lactis strain CS4616m [2]; metal ion added during the growth phase
  cell growth: totally abolished cell growth

## [Fe+3] [Fe^3+]
L. lactis strain CS4616m [1]; 20 mM Fe^2+ added at stationary phase, after 4 h
  diacetyl concentration: 78 mM
L. lactis strain CS4616m [1]; 30 mM Fe^3+ added at stationary phase, after 2 h, 108 mM glucose
  diacetyl concentration: 85 mM
L. lactis strain CS4616m [1]; 30 mM Fe^3+ added at stationary phase, after 4 h, 108 mM glucose
  diacetyl concentration: 95 mM
L. lactis strain CS4616m [1]; 30 mM Fe^3+, based on 4 h data
  productivity for diacetyl production: 0.58 g/L·h
  yield for diacetyl production: 0.87 mol mol^−1 glucose
L. lactis strain CS4616m [2]; 10 mM Fe^3+ from beginning of growth, 8.5 without Fe^3+ supplement
  final biomass: 3.3 OD600 nm
L. lactis strain CS4616m [2]; [5]
  cell growth: inhibited growth

## CC(=O)C(C)=O [diacetyl]
L. lactis strain CS4616m [2]; diacetyl (0-10 mM) added at OD600 nm of 0.6
  cell growth: inhibit cell growth

## hemin
L. lactis strain CS4616m [3]; [6]
  cell density: 8.5 OD600 nm
  growth rate: 0.8 h⁻¹
L. lactis strain CS4616m [3]; elevated hemin, circa 10 μg/ml or above (data not shown)
  effect on cell growth: significant negative effect on cell growth
L. lactis strain CS4616m [3]; hemin above 1 μg/ml (e.g. 5 μg/ml)
  final cell biomass and NADH/NAD+ ratio: did not further increase
L. lactis strain CS4616m [3]; hemin present
  growth of the strain under aerobic conditions: restored
L. lactis strain CS4616m [4]; 0.3 μg/ml hemin
  NADH/NAD+ ratio: 0.07
  intracellular NAD+ concentration: 0.25 mM
L. lactis strain CS4616m [4]; 1 μg/ml hemin
  NADH/NAD+ ratio: 0.03
  intracellular NAD+ concentration: 0.47 mM
